Experimental findings from patent US12559454B2, “Benzenesulfonamide derivatives and uses thereof” (2692372 Ontario, Inc., priority 2019, dated 2026) are described below.

Structures are written as SMILES.

One test deals with tubulin. In words: Tubulin polymerization assay. In kind it is biochemical. As to conditions: for % Inhibition: Vmax normalized to tubulin only control; for % D.O.P.: degree of polymerization relative to tubulin control. The procedure: A96-well half-area clear flat-bottom microplate (Corning® #3697) was pre-heated in a plate reader (Cytation 3, BioTek) at 37° C. for 15 minutes prior to the start of each assay. Tubulin polymerization buffer (80 mM PIPES pH 6.9, 2 mM MgCl2, 0.5 mM EGTA, 15% glycerol, 1 mM GTP) was prepared from stock solutions and placed on ice. Inhibitors were prepared to M concentrations in buffer (80 mM PIPES pH 6.9, 2 mM MgCl2, 0.5 mM EGTA, 5% DMSO) from DMSO stock solutions. After the assay plate was pre-warmed, 10 μL of inhibitor or buffer control was added to selected wells. Every assay contained a tubulin only negative control for normalization of data, and a batabulin positive control. The assay plate was incubated at 37° C. for 3 minutes. During this time, a frozen aliquot of tubulin (10 mg/mL) in buffer (80 mM PIPES pH 6.9, 2 mM MgCl2, 0.5 mM EGTA) was defrosted by placing in a room temperature water bath. Once thawed, 200 μL of tubulin was mixed with 420 μL ice cold tubulin polymerization buffer (3 mg/mL tubulin in 80 mM PIPES, pH 6.9, 2 mM MgCl2, 0.5 mM EGTA, 1 mM GTP, 10.2% glycerol). To a 96-well plate on ice, aliquots of 100 μL tubulin was added to each well. From this plate, 90 μL of tubulin was immediately pipetted into all sample wells of the warmed assay plate using a multi-channel pipette. The assay plate was immediately put in the reader at 37° C. and shook for 5 s with orbital shaking at medium speed. The reader recorded the absorbance at 340 nm every 15 s for 30 min.
The resulting absorbance curves were normalized by subtracting each data point by the absorbance at time 0.
The largest change in absorbance over the assay time course was also recorded and related to the tubulin control as the % degree of polymerization (% D.O.P.).

Another test concerns MOLM-13 cells. In words: CellTiter-Blue cell viability, MOLM-13. Format: cell-based. The conditions noted are these: Homo sapiens, 72 hrs exposure. The procedure:
(§1) Anti-cancer efficacy of exemplary compounds of this application was assessed in vitro in different cancer cell lines. Cell viability was examined following treatment at various concentration of inhibitor (0.097656-50 μM) using a cell Titer-Blue cell viability assay. 1×10^4 cells (NHF, MV4-11, K562 and MOLM-13 cells)/well were plated in 96-well assay plates in culture medium. All cells were grown in DMEM, IMDM and RPMI-1640 supplemented with 10% FBS. After 24 hrs, test compounds and vehicle controls were added to appropriate wells so the final volume was 100 μl in each well. The cells were cultured for the desired test exposure period (72 hrs) at 37° C. and 5% CO2. The assay plates were removed from 37° C. incubator and 20 μl/well of CellTiter-Blue® Reagent was added. The plates were incubated using standard cell culture conditions for 1-4 hours and the plates were shaken for 10 seconds and record fluorescence at 560/590 nm.
On the technique in general: Alamar Blue is a resazurin reagent that responds to reducing activity.

In a further test the test system is K562 cells. Description: CellTiter-Blue cell viability, K562. In kind it is cell-based. As to conditions: Homo sapiens, 72 hrs exposure. Here is the method:
as §1

The next test relates to MV4-11 cells. Description: CellTiter-Blue cell viability, MV-4-11. As to conditions: Homo sapiens, 72 hrs exposure. Format: cell-based. The procedure: as §1
The next test deals with BTK (Homo sapiens, UniProt Q06187). Description: In vitro BTK inhibition (no preincubation). Format: biochemical. As to conditions: Table 17.
BTK, sequence (Q06187 whole entry, species assumed): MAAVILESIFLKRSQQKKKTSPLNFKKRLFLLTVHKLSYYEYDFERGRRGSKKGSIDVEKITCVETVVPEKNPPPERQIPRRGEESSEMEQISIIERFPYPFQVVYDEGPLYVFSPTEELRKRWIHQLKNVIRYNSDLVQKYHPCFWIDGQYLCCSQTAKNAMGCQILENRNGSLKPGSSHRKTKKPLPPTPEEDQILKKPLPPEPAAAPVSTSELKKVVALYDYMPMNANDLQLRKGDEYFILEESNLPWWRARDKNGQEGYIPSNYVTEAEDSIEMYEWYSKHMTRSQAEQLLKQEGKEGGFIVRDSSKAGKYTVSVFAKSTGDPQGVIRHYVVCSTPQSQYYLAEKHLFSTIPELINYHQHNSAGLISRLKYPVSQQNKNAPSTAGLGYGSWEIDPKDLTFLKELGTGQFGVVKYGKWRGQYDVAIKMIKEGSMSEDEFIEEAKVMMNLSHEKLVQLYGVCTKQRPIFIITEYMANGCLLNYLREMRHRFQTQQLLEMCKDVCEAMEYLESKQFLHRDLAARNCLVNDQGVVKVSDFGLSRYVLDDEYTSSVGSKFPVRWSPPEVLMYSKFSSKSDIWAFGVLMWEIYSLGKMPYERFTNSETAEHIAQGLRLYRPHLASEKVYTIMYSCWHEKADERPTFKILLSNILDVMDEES

The term IC50 denotes the concentration that gives 50% inhibition. Read a high IC50 as weaker potency in that assay. `CN(C)S(=O)(=O)c1c(F)c(F)c(F)c(F)c1F` [Compound I-1, 2,3,4,5,6-pentafluoro-N,N-dimethylbenzenesulfonamide]: in the test on tubulin, the “% Inhibition” value is on record as “A (<10%)”. Also, in the test with tubulin, the “% D.O.P.” value is listed as “A (>85%)”. In addition, the half-inhibitory concentration (IC50) in the test on MOLM-13 cells was 1 to 10 µM; in the test with K562 cells, > 10 µM; in the test on MV4-11 cells, 1 to 10 µM.

Consider `COc1ccc(NS(=O)(=O)c2c(F)c(F)c(F)c(F)c2OC)cc1F` [Compound I-64, 2,3,4,5-tetrafluoro-N-(3-fluoro-4-methoxyphenyl)-6-methoxybenzenesulfonamide], for which, in the test with tubulin, the “% Inhibition” value is listed as “A (<10%)”. Also, the “% D.O.P.” value with tubulin is “A (>85%)”. Further, the half-maximal inhibitory concentration (IC50) is 0.1 to 1 µM in the test on MOLM-13 cells, 0.1 to 1 µM in the test with K562 cells and ≤ 0.1 µM in the test on MV4-11 cells.

For the molecule `COc1ccc(NS(=O)(=O)c2c(F)c(F)c(F)c(F)c2OCC(F)F)cc1F` [Compound I-67, 2-(2,2-difluoroethoxy)-3,4,5,6-tetrafluoro-N-(3-fluoro-4-methoxyphenyl)benzenesulfonamide], the “% Inhibition” value with tubulin is recorded as “C (>20%)”. The “% D.O.P.” value with tubulin is “B (< 85%)”. The IC50 in the test on MOLM-13 cells, in the test with K562 cells and in the test with MV4-11 cells was 0.1 to 1 µM each time.

Consider `COc1ccc(NS(=O)(=O)c2c(F)c(F)c(F)c(F)c2C(=O)C(F)(F)F)cc1F` [Compound I-90, 2,3,4,5-tetrafluoro-N-(3-fluoro-4-methoxyphenyl)-6-(2,2,2-trifluoroacetyl)benzenesulfonamide], for which the “% Inhibition” value with tubulin is given as “A (<10%)”. In addition, the “% D.O.P.” value with tubulin is “A (>85%)”. Moreover, the figures for the IC50 in the test with MOLM-13 cells, in the test with K562 cells and in the test on MV4-11 cells were 1 to 10 µM, > 10 µM and 1 to 10 µM, respectively.

With `COc1ccc(NS(=O)(=O)c2c(F)c(F)c(F)c(F)c2OCC(F)(F)F)cc1F` [Compound I-68, 2,3,4,5-tetrafluoro-N-(3-fluoro-4-methoxyphenyl)-6-(2,2,2-trifluoroethoxy)benzenesulfonamide], the “% Inhibition” value with tubulin is on record as “B (10-20%)”. For the same molecule, the “% D.O.P.” value in the test on tubulin is recorded as “B (< 85%)”. Moreover, the results for the IC50 with MOLM-13 cells, with K562 cells and in the test on MV4-11 cells were 1 to 10 µM, 0.1 to 1 µM and 0.1 to 1 µM, respectively.

Turning to `COc1ccc(NS(=O)(=O)c2c(F)c(F)c(F)c(F)c2OCC2CC2)cc1F` [Compound I-71, 2-(cyclopropylmethoxy)-3,4,5,6-tetrafluoro-N-(3-fluoro-4-methoxyphenyl)benzenesulfonamide], in the test with tubulin, the “% Inhibition” value was “A (<10%)”. Also, in the test with tubulin, the “% D.O.P.” value was “A (>85%)”. Moreover, the figures for the IC50 in the test on MOLM-13 cells, in the test with K562 cells and with MV4-11 cells were > 10 µM, 1 to 10 µM and 1 to 10 µM, respectively.

Molecule `Nc1ncnc2c1c(-c1ccc(Oc3ccccc3)cc1)nn2C1CN(S(=O)(=O)c2c(F)c(F)c(F)c(F)c2F)C1` [Compound 3A-24, 1-(1-((perfluorophenyl)sulfonyl)azetidin-3-yl)-3-(4-phenoxyphenyl)-1H-pyrazolo[3,4-d]pyrimidin-4-amine] came in with an IC50 on BTK of 0.0001 to 0.01 µM.

Turning to `COc1ccc(NS(=O)(=O)c2cc(F)c(F)c(F)c2F)cc1F` [Compound I-93, 2,3,4,5-tetrafluoro-N-(3-fluoro-4-methoxyphenyl)benzenesulfonamide], the “% Inhibition” value with tubulin was “C (>20%)”. Further, the “% D.O.P.” value with tubulin is reported as “B (< 85%)”. The figures for the IC50 with MOLM-13 cells, in the test on K562 cells and with MV4-11 cells were 0.1 to 1 µM, ≤ 0.1 µM and ≤ 0.1 µM, respectively.

With `COc1ccc(NS(=O)(=O)c2c(F)c(F)c(F)c(F)c2OCC(C)(C)C)cc1F` [Compound I-74, 2,3,4,5-tetrafluoro-N-(3-fluoro-4-methoxyphenyl)-6-(neopentyloxy)benzenesulfonamide], the “% Inhibition” value in the test with tubulin was “A (<10%)”. Moreover, in the test on tubulin, the “% D.O.P.” value was “A (>85%)”. In addition, the IC50 in the test with MOLM-13 cells, in the test with K562 cells and with MV4-11 cells was > 10 µM throughout.

As for `COc1ccc(NS(=O)(=O)c2c(F)c(F)c(F)c(F)c2OCF)cc1F` [Compound I-83, 2,3,4,5-tetrafluoro-N-(3-fluoro-4-methoxyphenyl)-6-(fluoromethoxy)benzenesulfonamide], the “% Inhibition” value in the test with tubulin is reported as “C (>20%)”. Moreover, in the test on tubulin, the “% D.O.P.” value was “B (< 85%)”. Moreover, the IC50 in the test on MOLM-13 cells, in the test with K562 cells and in the test with MV4-11 cells was ≤ 0.1 µM each time.

In the case of `COc1ccc(NS(=O)(=O)c2c(F)c(F)c(F)c(F)c2Oc2ccc(O)cc2)cc1F` [Compound I-77, 2,3,4,5-tetrafluoro-N-(3-fluoro-4-methoxyphenyl)-6-(4-hydroxyphenoxy)benzenesulfonamide], the “% Inhibition” value in the test on tubulin is “A (<10%)”. In addition, the “% D.O.P.” value in the test on tubulin is given as “A (>85%)”. For the same molecule, the IC50 in the test with MOLM-13 cells was > 10 µM; in the test with K562 cells, > 10 µM; in the test on MV4-11 cells, 1 to 10 µM.

For `COc1ccc(NS(=O)(=O)c2c(F)c(F)c(F)c(F)c2OCC2COC2)cc1F` [Compound I-73, 2,3,4,5-tetrafluoro-N-(3-fluoro-4-methoxyphenyl)-6-(oxetan-3-ylmethoxy)benzenesulfonamide], the “% Inhibition” value in the test with tubulin was “A (<10%)”. The “% D.O.P.” value in the test on tubulin is given as “A (>85%)”. The IC50 in the test with MOLM-13 cells lay in the range of 1 to 10 µM; in the test on K562 cells, 1 to 10 µM; in the test on MV4-11 cells, 0.1 to 1 µM.

In the case of `COc1ccc(NS(=O)(=O)c2c(F)c(F)c(F)c(F)c2Oc2ccc(OC)c(F)c2)cc1F` [Compound I-78, 2,3,4,5-tetrafluoro-6-(3-fluoro-4-methoxyphenoxy)-N-(3-fluoro-4-methoxyphenyl)benzenesulfonamide], in the test on tubulin, the “% Inhibition” value is “B (10-20%)”. In the test with tubulin, the “% D.O.P.” value is recorded as “B (< 85%)”. In addition, the IC50 in the test with MOLM-13 cells, in the test with K562 cells and with MV4-11 cells was 1 to 10 µM in each case.

With `COc1ccc(NS(=O)(=O)c2c(F)c(F)c(F)c(F)c2OCc2ccccc2)cc1F` [Compound I-62, 2-(benzyloxy)-3,4,5,6-tetrafluoro-N-(3-fluoro-4-methoxyphenyl)benzenesulfonamide], in the test with tubulin, the “% Inhibition” value was “A (<10%)”. Also, the IC50 with MOLM-13 cells, in the test with K562 cells and in the test with MV4-11 cells was > 10 µM each time.

Regarding `COc1ccc(NS(=O)(=O)c2c(F)c(F)c(F)c(F)c2OC2COC2)cc1F` [Compound I-72, 2,3,4,5-tetrafluoro-N-(3-fluoro-4-methoxyphenyl)-6-(oxetan-3-yloxy)benzenesulfonamide], the “% Inhibition” value with tubulin was “A (<10%)”. Also, in the test on tubulin, the “% D.O.P.” value was “A (>85%)”. The values for the IC50 with MOLM-13 cells, in the test on K562 cells and with MV4-11 cells were > 10 µM, > 10 µM and 0.1 to 1 µM, respectively.

On BTK, `Nc1ncnc2c1c(-c1ccc(Oc3ccccc3)cc1)nn2CCCNS(=O)(=O)c1c(F)c(F)c(F)c(F)c1F` [Compound 3A-10, N-(3-(4-amino-3-(4-phenoxyphenyl)-1H-pyrazolo[3,4-d]pyrimidin-1-yl)propyl)-2,3,4,5,6-pentafluorobenzenesulfonamide] displayed an IC50 of 0.0001 to 0.01 µM.

Take `COc1ccc(Oc2c(F)c(F)c(F)c(F)c2S(=O)(=O)Nc2ccc(OC)c(F)c2)cc1` [Compound I-79, 2,3,4,5-tetrafluoro-N-(3-fluoro-4-methoxyphenyl)-6-(4-methoxyphenoxy)benzenesulfonamide]: in the test on tubulin, the “% Inhibition” value is recorded as “A (<10%)”. Moreover, the “% D.O.P.” value with tubulin is given as “A (>85%)”. The IC50 with MOLM-13 cells is 1 to 10 µM; in the test with K562 cells, > 10 µM; in the test on MV4-11 cells, 1 to 10 µM.
